We go through 2 compounds from PubChem BioAssay (NCI).

Holding throughout (assay): NCI-60 cell line screen, 48 h
Experiment [1] deals with UACC-62 melanoma.
The subject of experiment [2] is OVCAR-3 ovarian.
Experiment [3] deals with M14 melanoma.
Experiment [4] relates to XF 498 CNS.
Experiment [5] has as its system SF-268 CNS.
The test system of experiment [6] is TK-10 renal.
Experiment [7] concerns HCT-116 colon.
Experiment [8] deals with A498 renal.
Experiment [9] concerns DLD-1 colon.
For experiment [10], the system named is DMS 114 small cell lung.
In experiment [11] the test system is LXFL 529 NSCLC.
The test system of experiment [12] is SK-MEL-28 melanoma.

The structures appear in SMILES notation.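 Cells were grown in 96-well plates and exposed to each compound for 48 hours at five concentrations; endpoints were interpolated linearly between bracketing concentrations, or set to the highest concentration if not reached. TGI is the concentration that stops growth completely.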 Bounds are passed on as bounds.

Turning to `O=Cc1ccccc1COC(=O)c1cc(C(=O)OCc2ccccc2C=O)c(C(=O)OCc2ccccc2C=O)cc1C(=O)OCc1ccccc1C=O`, the TGI in [1], in [2], in [3], in experiment [4], in experiment [5] and in experiment [6] was more than 100 µM throughout. Besides, the TGI in experiment [7], in experiment [8], in experiment [9], in experiment [10], in [11] and in experiment [12] was more than 100 µM in each case.

Turning to `CC1=CCC(O)C=CC(C)C(O)C(C)C=C(C)C(=O)c2c(O)c(C)cc3c2C(=O)C(N)=C(NC(=O)/C=C\C=C/C=CC(C)C(O)CC1=O)C3=O` (centres undefined), the TGI in experiment [1], in experiment [2], in experiment [3], in experiment [4], in [5] and in experiment [6] was more than 100 µM in each case. For the same compound, the TGI in experiment [7] is 54.4 µM; in experiment [8], more than 100 µM; in [9], more than 100 µM; in [10], more than 100 µM; in experiment [11], more than 100 µM; in experiment [12], more than 100 µM.
